From PubChem BioAssay (NCI)
“And” between values parts separate entries of the source, which are not always exact repeats. Equal values may be shown once.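 Results reflect a 48-hour exposure of cells in 96-well plates to compound at five concentrations. The concentration for 50% growth inhibition is given as GI50. TGI: total growth inhibition.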

Columns and labels:
Experiment in all cases: NCI anticancer screen, dose series, 48 h
A498 renal = test system: A498 renal
A549 NSCLC = test system: A549 NSCLC
BT-549 breast = test system: BT-549 breast
KM12 colon = test system: KM12 colon
LOX IMVI melanoma = test system: LOX IMVI melanoma
RPMI-8226 leukemia = test system: RPMI-8226 leukemia
SF-268 CNS = test system: SF-268 CNS
SK-MEL-5 melanoma = test system: SK-MEL-5 melanoma
SNB-19 CNS = test system: SNB-19 CNS
UACC-257 melanoma = test system: UACC-257 melanoma

Structure (SMILES)	GI50 (A498 renal)	TGI (A498 renal)	GI50 (A549 NSCLC)	TGI (A549 NSCLC)	GI50 (BT-549 breast)	TGI (BT-549 breast)	GI50 (KM12 colon)	TGI (KM12 colon)	GI50 (LOX IMVI melanoma)	TGI (LOX IMVI melanoma)	GI50 (RPMI-8226 leukemia)	TGI (RPMI-8226 leukemia)	GI50 (SF-268 CNS)	TGI (SF-268 CNS)	GI50 (SK-MEL-5 melanoma)	TGI (SK-MEL-5 melanoma)	GI50 (SNB-19 CNS)	TGI (SNB-19 CNS)	GI50 (UACC-257 melanoma)	TGI (UACC-257 melanoma)
Oc1nc(NCCc2ccccc2)sc1/C=C1\C=Nc2ncccc21	1.95 µM and 1.84 µM	4.19 µM and 4.45 µM	3.18 µM and 3.67 µM	12.5 µM and 14.6 µM	1.23 µM and 1.35 µM	3.26 µM and 3.34 µM	2.69 µM and 2.71 µM	9.91 µM and 13 µM	2.36 µM and 2.61 µM	10.6 µM and 9.37 µM	3.21 µM and 2.99 µM	12.5 µM and 16.1 µM	2.72 µM and 2.63 µM	9.07 µM and 8.87 µM	2.45 µM and 2.83 µM	6.67 µM and 7.88 µM	2.47 µM and 2.82 µM	11.2 µM and 18.7 µM	3.49 µM and 3.36 µM	8.68 µM and 8.42 µM
Cc1ccc(/C=C(\C#N)n2nnc3cc(Cl)c(Cl)cc32)cc1	1.91 µM	4.59 µM	3.58 µM	> 100 µM	1.81 µM	4.59 µM	3.03 µM	> 100 µM	1.81 µM	3.65 µM	1.7 µM	4.91 µM	3.66 µM	> 100 µM	2.44 µM	6.55 µM	–	–	2.95 µM	> 100 µM
CCCNc1nc(N(C)O)nc(N(C)O)n1	9.51 µM	> 62.6 µM	1.8 µM	> 100 µM	3.34 µM	> 29.9 µM	3.09 µM	> 100 µM	1.31 µM	> 100 µM	0.689 µM	4.46 µM	1.39 µM	> 56.6 µM	1.6 µM	6.61 µM	4.07 µM	> 100 µM	4.13 µM	> 46.2 µM
O=C1NC(=NCc2cccs2)SC1Cc1ccc2ncccc2c1 (centres undefined)	13.1 µM	> 25 µM	18.5 µM	> 25 µM	20.5 µM	> 25 µM	15.6 µM	> 25 µM	19.2 µM	> 25 µM	16.9 µM	> 25 µM	> 23 µM	> 25 µM	17.4 µM	> 25 µM	> 25 µM	> 25 µM	15.5 µM	> 25 µM
CCOP(=O)(CCP(=O)(OCC)OCC)OCC.C[CH2][Sn]([Cl])([Cl])[CH2]C	17.4 µM	26 µM	> 100 µM	> 100 µM	17.8 µM	33.8 µM	> 100 µM	> 100 µM	22 µM	47.9 µM	22.7 µM	67.2 µM	38.8 µM	> 66.8 µM	36.4 µM	> 86.7 µM	31.2 µM	49.9 µM	28.5 µM	59.3 µM
CCCc1cc(=O)oc2c(C(=O)CC(C)C)c(O)c(CC=C(C)C)c(O)c12	4.04 µM	17.9 µM	11.4 µM	> 50 µM	7.85 µM	42.4 µM	11 µM	> 50 µM	12.9 µM	> 50 µM	2.86 µM	22.1 µM	11.2 µM	> 50 µM	2.53 µM	11 µM	14.5 µM	> 50 µM	5.89 µM	29.9 µM
O=C1NC(=NCC(CO)c2ccccc2)S/C1=C\c1ccc2ncccc2c1 (centres undefined)	> 15.3 µM	> 25 µM	16.2 µM	> 25 µM	13.3 µM	> 25 µM	14.7 µM	> 25 µM	17.4 µM	> 25 µM	14.6 µM	> 25 µM	> 16.9 µM	> 25 µM	> 25 µM	> 25 µM	> 25 µM	> 25 µM	> 25 µM	> 25 µM
COC1=C(OC)C(=O)C(/C=C(\C)C(=O)O)=C(C)C1=O	> 100 µM	> 100 µM	> 100 µM	> 100 µM	> 100 µM	> 100 µM	> 100 µM	> 100 µM	> 100 µM	> 100 µM	> 100 µM	> 100 µM	> 100 µM	> 100 µM	> 100 µM	> 100 µM	> 100 µM	> 100 µM	> 100 µM	> 100 µM
CCOC(=O)C1=C(Nc2ccccc2)OC/C1=N\NC(=O)Cc1ccccc1	–	> 50 µM	–	> 50 µM	–	–	–	> 50 µM	–	> 50 µM	–	> 50 µM	–	> 50 µM	–	> 50 µM	–	> 50 µM	–	> 50 µM
O=C(CCc1nnc2s/c(=C\c3ccccc3)c(=O)n12)Nc1cc(Cl)ccc1Cl	–	> 100 µM	–	> 100 µM	–	–	–	> 100 µM	–	> 100 µM	–	> 100 µM	–	> 100 µM	–	> 100 µM	–	> 100 µM	–	> 100 µM
O=C(NCCCN1CCN(CCCNC(=O)c2cnc3ccccc3n2)CC1)c1cnc2ccccc2n1	–	> 100 µM	–	> 100 µM	–	–	–	> 100 µM	–	> 100 µM	–	> 100 µM	–	> 100 µM	–	> 100 µM	–	> 100 µM	–	> 100 µM
C=C1CC[C@@H]2C(C)(C)[C@@H](O)CC[C@@]2(C)[C@@H]1COc1ccc2ccc(=O)oc2c1	–	–	8.46 µM	66.8 µM	6.65 µM	20.1 µM	12.3 µM	29.1 µM	13.8 µM	27.7 µM	8.75 µM	65.7 µM	12.2 µM	33.1 µM	5.68 µM	18 µM	14.1 µM	34.2 µM	14.1 µM	32.1 µM
Cn1cc(-c2csc(-c3c[nH]c4ncccc34)n2)c2cc(Br)cnc21	10.9 µM	> 100 µM	–	–	20.5 µM	> 100 µM	5.7 µM	> 100 µM	4.26 µM	> 100 µM	> 100 µM	> 100 µM	6.01 µM	> 100 µM	–	–	6.74 µM	> 100 µM	–	–
CC(C)c1cc(C(C)C)c(S(=O)(=O)NN)c(C(C)C)c1	–	> 100 µM	–	> 100 µM	–	–	–	> 100 µM	–	> 100 µM	–	> 100 µM	–	> 100 µM	–	> 100 µM	–	> 100 µM	–	> 100 µM
Cc1c2ccccc2c(C)c2c3c(ccc12)C(=O)C=CC3=O	–	> 100 µM	–	> 100 µM	–	–	–	> 67.6 µM	–	> 63.4 µM	–	60.6 µM	–	43.1 µM	–	> 79.3 µM	–	> 100 µM	–	41.5 µM
NC(=O)c1ccccc1NC(=O)C(=O)C(C(=O)c1ccc2ccccc2c1)C1OC(=O)c2ccccc21 (centres undefined)	–	> 100 µM	–	50.5 µM	–	–	–	49 µM	–	29.9 µM	–	48.1 µM	–	37.1 µM	–	24.6 µM	–	20.7 µM	–	37.4 µM
